Results published in PubChem BioAssay (NCI).
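Briefly, cells in 96-well plates were exposed to five compound concentrations for 48 h, and endpoints were estimated by linear interpolation. GI50 marks 50% less growth. The concentration for full growth arrest is given as TGI.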

Key:
Assay in all cases: inhibition of tumour cell growth, NCI panel, 48 h
786-0 renal = test system: 786-0 renal
A498 renal = test system: A498 renal
A549 NSCLC = test system: A549 NSCLC
ACHN renal = test system: ACHN renal
BT-549 breast = test system: BT-549 breast
CAKI-1 renal = test system: CAKI-1 renal
CCRF-CEM leukemia = test system: CCRF-CEM leukemia
COLO 205 colon = test system: COLO 205 colon
DU-145 prostate = test system: DU-145 prostate
EKVX NSCLC = test system: EKVX NSCLC
HCC-2998 colon = test system: HCC-2998 colon
HCT-116 colon = test system: HCT-116 colon
HCT-15 colon = test system: HCT-15 colon
HL-60(TB) leukemia = test system: HL-60(TB) leukemia
HOP-62 NSCLC = test system: HOP-62 NSCLC
HOP-92 NSCLC = test system: HOP-92 NSCLC
HT29 colon = test system: HT29 colon
IGROV1 ovarian = test system: IGROV1 ovarian
K-562 leukemia = test system: K-562 leukemia
KM12 colon = test system: KM12 colon
LOX IMVI melanoma = test system: LOX IMVI melanoma
M14 melanoma = test system: M14 melanoma
MALME-3M melanoma = test system: MALME-3M melanoma
MCF7 breast = test system: MCF7 breast
MDA-MB-231 breast = test system: MDA-MB-231 breast
MDA-MB-435 = test system: MDA-MB-435
MOLT-4 leukemia = test system: MOLT-4 leukemia
NCI-H226 lung = test system: NCI-H226 lung
NCI-H23 lung = test system: NCI-H23 lung
NCI-H460 lung = test system: NCI-H460 lung
NCI-H522 lung = test system: NCI-H522 lung
NCI/ADR-RES ovarian = test system: NCI/ADR-RES ovarian
OVCAR-3 ovarian = test system: OVCAR-3 ovarian
OVCAR-4 ovarian = test system: OVCAR-4 ovarian
OVCAR-5 ovarian = test system: OVCAR-5 ovarian
OVCAR-8 ovarian = test system: OVCAR-8 ovarian
PC-3 prostate = test system: PC-3 prostate
RPMI-8226 leukemia = test system: RPMI-8226 leukemia
RXF 393 renal = test system: RXF 393 renal
SF-268 CNS = test system: SF-268 CNS
SF-295 CNS = test system: SF-295 CNS
SF-539 CNS = test system: SF-539 CNS
SK-MEL-2 melanoma = test system: SK-MEL-2 melanoma
SK-MEL-28 melanoma = test system: SK-MEL-28 melanoma
SK-MEL-5 melanoma = test system: SK-MEL-5 melanoma
SK-OV-3 ovarian = test system: SK-OV-3 ovarian
SN12C renal = test system: SN12C renal
SNB-19 CNS = test system: SNB-19 CNS
SNB-75 CNS = test system: SNB-75 CNS
SR leukemia = test system: SR leukemia
SW-620 colon = test system: SW-620 colon
TK-10 renal = test system: TK-10 renal
U251 CNS = test system: U251 CNS
UACC-257 melanoma = test system: UACC-257 melanoma
UACC-62 melanoma = test system: UACC-62 melanoma
UO-31 renal = test system: UO-31 renal

SMILES: Cn1ccc(=O)c2c(O)c3ccccc3c(O)c21
- GI50 (786-0 renal): > 100 µM
- TGI (786-0 renal): > 100 µM
- GI50 (A498 renal): 20.2 µM
- TGI (A498 renal): > 100 µM
- GI50 (A549 NSCLC): > 93.1 µM
- TGI (A549 NSCLC): > 100 µM
- GI50 (ACHN renal): 35.3 µM
- TGI (ACHN renal): > 100 µM
- GI50 (BT-549 breast): > 100 µM
- TGI (BT-549 breast): > 100 µM
- GI50 (CAKI-1 renal): 57 µM
- TGI (CAKI-1 renal): > 100 µM
- TGI (CCRF-CEM leukemia): > 100 µM
- GI50 (COLO 205 colon): 56.9 µM
- TGI (COLO 205 colon): > 100 µM
- GI50 (DU-145 prostate): > 100 µM
- TGI (DU-145 prostate): > 100 µM
- GI50 (EKVX NSCLC): > 100 µM
- TGI (EKVX NSCLC): > 100 µM
- GI50 (HCC-2998 colon): 20.3 µM
- TGI (HCC-2998 colon): > 100 µM
- GI50 (HCT-116 colon): 42.2 µM
- TGI (HCT-116 colon): > 100 µM
- GI50 (HCT-15 colon): > 66.1 µM
- TGI (HCT-15 colon): > 100 µM
- GI50 (HL-60(TB) leukemia): > 100 µM
- TGI (HL-60(TB) leukemia): > 100 µM
- GI50 (HOP-62 NSCLC): 64.5 µM
- TGI (HOP-62 NSCLC): > 100 µM
- GI50 (HOP-92 NSCLC): > 100 µM
- TGI (HOP-92 NSCLC): > 100 µM
- GI50 (HT29 colon): 99.9 µM
- TGI (HT29 colon): > 100 µM
- GI50 (IGROV1 ovarian): > 100 µM
- TGI (IGROV1 ovarian): > 100 µM
- GI50 (K-562 leukemia): > 100 µM
- TGI (K-562 leukemia): > 100 µM
- GI50 (KM12 colon): > 70.1 µM
- TGI (KM12 colon): > 100 µM
- GI50 (LOX IMVI melanoma): 52.7 µM
- TGI (LOX IMVI melanoma): > 100 µM
- GI50 (M14 melanoma): 97.5 µM
- TGI (M14 melanoma): > 100 µM
- GI50 (MALME-3M melanoma): > 100 µM
- TGI (MALME-3M melanoma): > 100 µM
- GI50 (MCF7 breast): > 100 µM
- TGI (MCF7 breast): > 100 µM
- GI50 (MDA-MB-231 breast): 99.1 µM
- TGI (MDA-MB-231 breast): > 100 µM
- GI50 (MDA-MB-435): > 100 µM
- TGI (MDA-MB-435): > 100 µM
- GI50 (MOLT-4 leukemia): 80.9 µM
- TGI (MOLT-4 leukemia): > 100 µM
- GI50 (NCI-H226 lung): > 44.6 µM
- TGI (NCI-H226 lung): > 100 µM
- GI50 (NCI-H23 lung): > 100 µM
- TGI (NCI-H23 lung): > 100 µM
- GI50 (NCI-H460 lung): > 69 µM
- TGI (NCI-H460 lung): > 100 µM
- GI50 (NCI-H522 lung): > 94 µM
- TGI (NCI-H522 lung): > 100 µM
- GI50 (NCI/ADR-RES ovarian): > 100 µM
- TGI (NCI/ADR-RES ovarian): > 100 µM
- GI50 (OVCAR-3 ovarian): > 100 µM
- TGI (OVCAR-3 ovarian): > 100 µM
- GI50 (OVCAR-4 ovarian): > 100 µM
- TGI (OVCAR-4 ovarian): > 100 µM
- GI50 (OVCAR-5 ovarian): > 100 µM
- TGI (OVCAR-5 ovarian): > 100 µM
- GI50 (OVCAR-8 ovarian): > 58.6 µM
- TGI (OVCAR-8 ovarian): > 100 µM
- GI50 (PC-3 prostate): > 26.6 µM
- TGI (PC-3 prostate): > 100 µM
- GI50 (RPMI-8226 leukemia): 34.5 µM
- TGI (RPMI-8226 leukemia): > 100 µM
- GI50 (RXF 393 renal): > 100 µM
- TGI (RXF 393 renal): > 100 µM
- GI50 (SF-268 CNS): > 100 µM
- TGI (SF-268 CNS): > 100 µM
- GI50 (SF-295 CNS): 64.3 µM
- TGI (SF-295 CNS): > 100 µM
- GI50 (SF-539 CNS): > 82.3 µM
- TGI (SF-539 CNS): > 100 µM
- GI50 (SK-MEL-2 melanoma): > 100 µM
- TGI (SK-MEL-2 melanoma): > 100 µM
- GI50 (SK-MEL-28 melanoma): > 100 µM
- TGI (SK-MEL-28 melanoma): > 100 µM
- GI50 (SK-MEL-5 melanoma): 18.3 µM
- TGI (SK-MEL-5 melanoma): > 52.4 µM
- GI50 (SK-OV-3 ovarian): > 94.2 µM
- TGI (SK-OV-3 ovarian): > 100 µM
- GI50 (SN12C renal): 78.1 µM
- TGI (SN12C renal): > 100 µM
- GI50 (SNB-19 CNS): > 40.2 µM
- TGI (SNB-19 CNS): > 100 µM
- GI50 (SNB-75 CNS): > 100 µM
- TGI (SNB-75 CNS): > 100 µM
- GI50 (SR leukemia): 44.5 µM
- TGI (SR leukemia): > 100 µM
- GI50 (SW-620 colon): 59.9 µM
- TGI (SW-620 colon): > 100 µM
- GI50 (TK-10 renal): > 94.9 µM
- TGI (TK-10 renal): > 100 µM
- GI50 (U251 CNS): > 100 µM
- TGI (U251 CNS): > 100 µM
- GI50 (UACC-257 melanoma): > 100 µM
- TGI (UACC-257 melanoma): > 100 µM
- GI50 (UACC-62 melanoma): > 88.6 µM
- TGI (UACC-62 melanoma): > 100 µM
- GI50 (UO-31 renal): > 100 µM
- TGI (UO-31 renal): > 100 µM
